In ChEMBL document CHEMBL3867477 (Bioorg Med Chem Lett, 2016):
Converted amounts (≈) assume the structure as drawn. Each block holds one compound with its values, some of them ahead of it.

Tests used:
[1] = Intrinsic clearance in rat liver microsomes; assay type: ADME; conditions: read-out: CLH
[2] = Oral bioavailability in rat at 10 mg/kg; assay type: ADME, organism-based; conditions: in vivo
[3] = Clearance in rat at 2 mg/kg, iv; assay type: ADME, organism-based; conditions: in vivo
[4] = Displacement of (2S)-N-(2-phenylphenyl)-1-[2-[1-(tritritiomethyl)benzimidazol-2-yl]sulfanylacetyl]pyrrolidine-2-carboxamide from human OX1 receptor Ile408-Val mutant expressed on CHO cell membrane measured after 3 hrs by TopCount method; assay type: cell membranes
Orexin receptor type 2 [5] = biological target: T1, Orexin receptor type 2 (Homo sapiens, UniProt O43614); experiment: Displacement of (2S)-N-(2-pyrrol-1-ylphenyl)-1-[2-[1-(tritritiomethyl)benzimidazol-2-yl]sulfanylacetyl]pyrrolidine-2-carboxamide from human OX2 receptor expressed on CHO cell membrane measured after 3 hrs by TopCount method; assay type: cell membranes
T1 sequence (O43614 whole entry): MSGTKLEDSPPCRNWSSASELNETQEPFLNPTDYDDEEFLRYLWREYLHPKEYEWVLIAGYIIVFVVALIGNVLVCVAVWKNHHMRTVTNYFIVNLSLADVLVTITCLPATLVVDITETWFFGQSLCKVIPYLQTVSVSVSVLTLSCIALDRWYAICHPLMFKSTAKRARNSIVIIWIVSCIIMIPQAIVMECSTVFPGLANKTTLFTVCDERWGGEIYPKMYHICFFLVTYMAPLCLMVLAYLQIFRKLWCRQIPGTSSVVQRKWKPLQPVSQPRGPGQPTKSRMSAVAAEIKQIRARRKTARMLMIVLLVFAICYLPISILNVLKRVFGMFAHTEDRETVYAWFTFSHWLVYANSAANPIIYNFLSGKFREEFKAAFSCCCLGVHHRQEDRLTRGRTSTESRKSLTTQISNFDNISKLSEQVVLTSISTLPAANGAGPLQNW

CHO = experiment: Selectivity index, ratio of Ki for human OX2 receptor expressed on CHO cell membrane to Ki for Ile408-Val variant human OX1 receptor expressed on CHO cell membrane; assay type: cell-based
[6] = Solubility of the compound; assay type: physicochemical
[7] = Drug metabolism in rat liver microsomes assessed as oxidation of banzamide; assay type: ADME
Orexin receptor type 2 [8] = biological target: T2, Orexin receptor type 2 (Rattus norvegicus, UniProt P56719); assay type: functional
T2 sequence (P56719 whole entry): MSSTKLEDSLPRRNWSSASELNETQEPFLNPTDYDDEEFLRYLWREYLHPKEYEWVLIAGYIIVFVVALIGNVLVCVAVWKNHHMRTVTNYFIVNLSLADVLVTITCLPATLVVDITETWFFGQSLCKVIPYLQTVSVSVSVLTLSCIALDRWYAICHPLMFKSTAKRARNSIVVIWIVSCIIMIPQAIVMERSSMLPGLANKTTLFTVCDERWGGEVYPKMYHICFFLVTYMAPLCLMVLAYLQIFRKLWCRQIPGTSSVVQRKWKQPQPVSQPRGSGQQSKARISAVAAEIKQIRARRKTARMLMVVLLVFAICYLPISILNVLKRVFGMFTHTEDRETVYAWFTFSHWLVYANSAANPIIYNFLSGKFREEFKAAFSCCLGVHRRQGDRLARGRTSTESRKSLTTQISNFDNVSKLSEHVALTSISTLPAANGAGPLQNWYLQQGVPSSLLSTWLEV
Description: Antagonist activity at rat OX2 receptor assessed as inhibition of Ala-6,12 orexin-A-induced calcium increase preincubated for 5 mins prior to Ala-6,12 orexin-A addition measured at 1 sec intervals for 1 min by Fluo-4AM dye-based FLIPR assay

[9] = biological target: Sodium channel protein type 5 subunit alpha (Homo sapiens, UniProt Q14524); experiment: Inhibition of Nav1.5 (unknown origin)
Sequence of Sodium channel protein type 5 subunit alpha (Q14524 whole entry): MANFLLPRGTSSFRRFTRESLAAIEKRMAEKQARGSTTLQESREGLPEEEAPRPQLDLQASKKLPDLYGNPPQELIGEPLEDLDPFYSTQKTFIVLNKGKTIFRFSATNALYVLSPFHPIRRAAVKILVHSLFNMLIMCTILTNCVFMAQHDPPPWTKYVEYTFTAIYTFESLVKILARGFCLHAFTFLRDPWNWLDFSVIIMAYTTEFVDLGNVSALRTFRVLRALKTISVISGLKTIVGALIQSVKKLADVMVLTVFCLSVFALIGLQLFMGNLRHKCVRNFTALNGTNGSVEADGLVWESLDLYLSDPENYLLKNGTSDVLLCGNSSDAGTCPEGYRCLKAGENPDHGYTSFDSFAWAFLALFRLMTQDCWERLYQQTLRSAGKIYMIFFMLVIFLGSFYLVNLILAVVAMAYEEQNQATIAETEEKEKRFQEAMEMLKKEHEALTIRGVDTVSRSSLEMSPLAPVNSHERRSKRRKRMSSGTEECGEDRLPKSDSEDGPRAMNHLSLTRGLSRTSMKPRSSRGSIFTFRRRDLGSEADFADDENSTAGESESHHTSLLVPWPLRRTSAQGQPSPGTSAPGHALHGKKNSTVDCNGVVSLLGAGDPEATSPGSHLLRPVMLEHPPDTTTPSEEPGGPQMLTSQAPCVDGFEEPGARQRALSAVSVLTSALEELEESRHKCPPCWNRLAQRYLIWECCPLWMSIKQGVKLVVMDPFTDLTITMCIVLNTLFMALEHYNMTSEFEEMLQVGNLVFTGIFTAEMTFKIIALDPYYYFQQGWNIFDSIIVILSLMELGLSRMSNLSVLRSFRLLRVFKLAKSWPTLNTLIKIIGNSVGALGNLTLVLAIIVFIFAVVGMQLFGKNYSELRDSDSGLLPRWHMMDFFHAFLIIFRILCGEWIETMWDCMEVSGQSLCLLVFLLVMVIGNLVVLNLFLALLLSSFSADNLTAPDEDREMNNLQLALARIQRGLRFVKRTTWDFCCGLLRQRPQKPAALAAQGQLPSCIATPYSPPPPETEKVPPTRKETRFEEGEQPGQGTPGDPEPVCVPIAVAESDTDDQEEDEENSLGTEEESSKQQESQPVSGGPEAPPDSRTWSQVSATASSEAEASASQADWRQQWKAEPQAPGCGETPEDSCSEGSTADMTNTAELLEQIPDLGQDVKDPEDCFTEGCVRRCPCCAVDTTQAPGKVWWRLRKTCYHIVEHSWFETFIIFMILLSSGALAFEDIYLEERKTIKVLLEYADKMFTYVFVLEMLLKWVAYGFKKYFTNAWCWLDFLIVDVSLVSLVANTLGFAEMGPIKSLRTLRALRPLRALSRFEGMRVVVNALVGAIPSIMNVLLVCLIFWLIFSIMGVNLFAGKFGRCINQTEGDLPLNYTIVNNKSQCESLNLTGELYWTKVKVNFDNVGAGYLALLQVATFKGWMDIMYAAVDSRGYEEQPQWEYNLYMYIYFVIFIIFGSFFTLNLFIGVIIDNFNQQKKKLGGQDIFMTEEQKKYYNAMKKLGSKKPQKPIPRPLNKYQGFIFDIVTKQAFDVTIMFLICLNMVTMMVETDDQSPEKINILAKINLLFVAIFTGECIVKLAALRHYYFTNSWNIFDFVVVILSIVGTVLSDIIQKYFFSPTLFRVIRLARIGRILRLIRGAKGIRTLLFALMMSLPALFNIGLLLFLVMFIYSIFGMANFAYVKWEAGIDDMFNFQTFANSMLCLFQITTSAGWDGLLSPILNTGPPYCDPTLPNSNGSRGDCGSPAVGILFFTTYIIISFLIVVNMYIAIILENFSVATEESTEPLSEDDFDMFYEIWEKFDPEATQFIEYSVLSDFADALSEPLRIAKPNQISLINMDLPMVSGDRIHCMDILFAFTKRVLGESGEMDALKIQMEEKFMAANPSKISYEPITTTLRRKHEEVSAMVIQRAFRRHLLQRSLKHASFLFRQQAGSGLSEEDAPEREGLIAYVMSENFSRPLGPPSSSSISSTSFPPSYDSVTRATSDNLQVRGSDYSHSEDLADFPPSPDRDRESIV

[10] = biological target: Voltage-dependent L-type calcium channel subunit alpha-1C (Homo sapiens, UniProt Q13936); experiment: Inhibition of Cav1.2 (unknown origin)
Sequence of Voltage-dependent L-type calcium channel subunit alpha-1C (Q13936 whole entry): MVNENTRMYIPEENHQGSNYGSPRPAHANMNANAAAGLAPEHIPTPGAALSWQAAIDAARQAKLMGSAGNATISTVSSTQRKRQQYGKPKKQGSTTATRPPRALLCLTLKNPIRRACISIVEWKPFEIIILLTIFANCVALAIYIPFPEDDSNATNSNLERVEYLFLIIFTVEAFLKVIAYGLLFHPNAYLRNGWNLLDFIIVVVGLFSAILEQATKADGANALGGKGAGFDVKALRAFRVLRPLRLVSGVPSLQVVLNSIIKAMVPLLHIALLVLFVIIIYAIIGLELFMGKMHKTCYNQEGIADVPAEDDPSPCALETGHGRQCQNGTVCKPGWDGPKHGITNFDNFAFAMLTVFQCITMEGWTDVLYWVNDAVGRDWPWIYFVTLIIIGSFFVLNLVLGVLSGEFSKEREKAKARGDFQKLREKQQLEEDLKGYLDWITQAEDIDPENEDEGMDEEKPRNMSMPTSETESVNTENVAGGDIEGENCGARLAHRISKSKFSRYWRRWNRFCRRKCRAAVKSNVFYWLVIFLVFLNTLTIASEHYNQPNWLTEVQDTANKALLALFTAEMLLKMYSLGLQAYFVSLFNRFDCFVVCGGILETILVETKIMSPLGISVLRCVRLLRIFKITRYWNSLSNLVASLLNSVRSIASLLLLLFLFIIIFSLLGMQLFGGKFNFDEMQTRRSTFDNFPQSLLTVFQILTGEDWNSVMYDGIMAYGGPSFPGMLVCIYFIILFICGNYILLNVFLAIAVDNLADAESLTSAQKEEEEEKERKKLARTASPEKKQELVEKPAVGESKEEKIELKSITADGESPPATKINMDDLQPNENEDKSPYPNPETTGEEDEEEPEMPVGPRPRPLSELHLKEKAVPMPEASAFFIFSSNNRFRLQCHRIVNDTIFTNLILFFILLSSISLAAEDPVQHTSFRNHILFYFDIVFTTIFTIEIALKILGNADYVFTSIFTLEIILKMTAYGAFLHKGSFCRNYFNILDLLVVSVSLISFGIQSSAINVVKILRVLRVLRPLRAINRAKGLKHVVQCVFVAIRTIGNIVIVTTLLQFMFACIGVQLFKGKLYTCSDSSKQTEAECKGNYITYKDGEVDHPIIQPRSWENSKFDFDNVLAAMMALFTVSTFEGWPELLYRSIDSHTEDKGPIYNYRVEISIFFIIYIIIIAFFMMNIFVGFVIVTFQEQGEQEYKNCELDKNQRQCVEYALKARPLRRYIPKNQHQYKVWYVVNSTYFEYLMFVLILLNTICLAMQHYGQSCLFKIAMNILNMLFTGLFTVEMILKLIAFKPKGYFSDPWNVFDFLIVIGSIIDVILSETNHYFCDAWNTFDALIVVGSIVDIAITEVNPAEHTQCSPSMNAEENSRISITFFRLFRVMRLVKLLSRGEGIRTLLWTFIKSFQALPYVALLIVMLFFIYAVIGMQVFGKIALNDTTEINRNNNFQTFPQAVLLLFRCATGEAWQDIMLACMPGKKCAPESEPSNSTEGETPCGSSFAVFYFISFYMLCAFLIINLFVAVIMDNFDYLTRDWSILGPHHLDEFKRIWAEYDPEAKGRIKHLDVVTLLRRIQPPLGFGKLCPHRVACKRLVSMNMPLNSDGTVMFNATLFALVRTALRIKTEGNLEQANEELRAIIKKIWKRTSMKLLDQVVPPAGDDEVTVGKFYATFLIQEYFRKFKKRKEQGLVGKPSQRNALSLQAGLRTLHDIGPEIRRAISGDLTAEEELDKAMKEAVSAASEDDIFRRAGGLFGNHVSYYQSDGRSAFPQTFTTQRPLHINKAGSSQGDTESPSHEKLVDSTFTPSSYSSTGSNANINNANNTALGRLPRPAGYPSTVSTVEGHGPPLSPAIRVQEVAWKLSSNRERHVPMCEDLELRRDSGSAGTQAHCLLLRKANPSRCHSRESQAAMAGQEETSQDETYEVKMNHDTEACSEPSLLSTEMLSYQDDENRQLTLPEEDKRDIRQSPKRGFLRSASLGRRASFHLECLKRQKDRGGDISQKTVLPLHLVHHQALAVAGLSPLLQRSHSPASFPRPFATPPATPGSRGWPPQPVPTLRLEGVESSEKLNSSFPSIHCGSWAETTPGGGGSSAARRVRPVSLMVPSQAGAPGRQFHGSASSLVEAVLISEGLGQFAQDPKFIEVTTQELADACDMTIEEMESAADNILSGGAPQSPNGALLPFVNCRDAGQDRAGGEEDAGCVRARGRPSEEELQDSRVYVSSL

[11] = Protein binding in dog plasma; assay type: ADME, cell-free, Canis lupus familiaris; conditions: read-out: PPB (converted)
[12] = biological target: T3, Orexin/Hypocretin receptor type 1 (Rattus norvegicus, UniProt P56718); experiment: Antagonist activity at rat OX1 receptor assessed as inhibition of Ala-6,12 orexin-A-induced calcium increase preincubated for 5 mins prior to Ala-6,12 orexin-A addition measured at 1 sec intervals for 1 min by Fluo-4AM dye-based FLIPR assay; assay type: functional
T3 sequence (P56718 whole entry): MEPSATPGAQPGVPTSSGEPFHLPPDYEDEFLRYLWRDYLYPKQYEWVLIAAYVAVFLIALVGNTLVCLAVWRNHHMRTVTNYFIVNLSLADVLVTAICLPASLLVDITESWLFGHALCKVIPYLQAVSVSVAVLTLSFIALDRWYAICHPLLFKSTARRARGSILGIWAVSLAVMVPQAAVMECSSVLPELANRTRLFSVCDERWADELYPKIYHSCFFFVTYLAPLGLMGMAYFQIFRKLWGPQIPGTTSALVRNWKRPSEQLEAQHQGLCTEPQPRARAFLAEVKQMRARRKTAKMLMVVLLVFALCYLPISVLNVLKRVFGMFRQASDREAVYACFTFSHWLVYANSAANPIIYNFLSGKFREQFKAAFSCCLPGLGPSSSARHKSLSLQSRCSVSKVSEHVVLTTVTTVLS

[13] = Antagonist activity at human OX1 receptor Ile408-Val mutant expressed on CHO cell membrane assessed as inhibition of Ala-6,12 orexin-A-induced calcium increase preincubated for 5 mins prior to Ala-6,12 orexin-A addition measured at 1 sec intervals for 1 min by Fluo-4AM dye-based FLIPR assay
Orexin receptor type 2 [14] = biological target: T1, Orexin receptor type 2; assay type: functional, cell-based, CHO
Description: Antagonist activity at human OX2 receptor expressed on CHO cell membrane assessed as inhibition of Ala-6,12 orexin-A-induced calcium increase preincubated for 5 mins prior to Ala-6,12 orexin-A addition measured at 1 sec intervals for 1 min by Fluo-4AM dye-based FLIPR assay

Rattus norvegicus [15] = organism: Rattus norvegicus; experiment: Selectivity index, ratio of IC50 for rat OX2 receptor to IC50 for rat OX1 receptor
[16] = Aqueous solubility of the compound at pH 2; assay type: physicochemical; conditions: aqueous medium
[17] = Aqueous solubility of the compound at pH 7; assay type: physicochemical; conditions: aqueous medium
[18] = Protein binding in human plasma; assay type: ADME, cell-free; conditions: read-out: PPB (converted)
[19] = Intrinsic clearance in dog liver microsomes; assay type: ADME, Canis lupus familiaris; conditions: read-out: CLH
[20] = Intrinsic clearance in human liver microsomes; assay type: ADME; conditions: read-out: CLH
[21] = Selectivity index, ratio of IC50 for human OX1 receptor to IC50 for rat OX1 receptor
[22] = Intrinsic clearance in rhesus monkey liver microsomes; assay type: ADME, Macaca mulatta; conditions: read-out: CLH
[23] = Half life in rat at 2 mg/kg, iv or 10 mg/kg, po; assay type: ADME, organism-based; conditions: in vivo
[24] = Clearance in dog at 0.5 mg/kg, iv or 10 mg/kg, po; assay type: ADME, organism-based, Canis lupus familiaris; conditions: in vivo
[25] = Half life in dog at 0.5 mg/kg, iv or 10 mg/kg, po; assay type: ADME, organism-based, Canis lupus familiaris; conditions: in vivo
[26] = Oral bioavailability in dog at 3 mg/kg; assay type: ADME, organism-based, Canis lupus familiaris; conditions: in vivo
[27] = Clearance in rhesus monkey at 2 mg/kg, iv or 10 mg/kg, po; assay type: ADME, organism-based, Macaca mulatta; conditions: in vivo
[28] = Half life in rhesus monkey at 2 mg/kg, iv or 10 mg/kg, po; assay type: ADME, organism-based, Macaca mulatta; conditions: in vivo
[29] = Oral bioavailability in rhesus monkey at 30 mg/kg; assay type: ADME, organism-based, Macaca mulatta; conditions: in vivo
[30] = Apparent permeability of the compound; assay type: ADME; conditions: not told
[31] = Protein binding in rat plasma; assay type: ADME, cell-free; conditions: read-out: PPB (converted)
[32] = Protein binding in rhesus monkey plasma; assay type: ADME, cell-free, Macaca mulatta; conditions: read-out: PPB (converted)
[33] = biological target: T4, Orexin/Hypocretin receptor type 1 (Homo sapiens, UniProt O43613); experiment: Binding affinity to OX1 receptor (unknown origin)
T4 sequence (O43613 whole entry): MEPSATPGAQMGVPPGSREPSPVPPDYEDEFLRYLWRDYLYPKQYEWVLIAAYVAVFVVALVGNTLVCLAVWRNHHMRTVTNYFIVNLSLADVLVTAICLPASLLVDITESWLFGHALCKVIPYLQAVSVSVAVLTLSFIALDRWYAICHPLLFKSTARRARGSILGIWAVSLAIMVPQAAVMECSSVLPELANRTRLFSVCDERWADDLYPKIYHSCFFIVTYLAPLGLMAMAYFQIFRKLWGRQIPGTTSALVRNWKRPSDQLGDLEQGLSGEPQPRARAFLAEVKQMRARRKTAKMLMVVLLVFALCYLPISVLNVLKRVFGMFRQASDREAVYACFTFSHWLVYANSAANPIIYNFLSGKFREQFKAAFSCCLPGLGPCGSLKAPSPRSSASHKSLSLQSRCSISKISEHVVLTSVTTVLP

[34] = biological target: T5, Orexin/Hypocretin receptor type 1 (Homo sapiens) (UniProt O43613); experiment: Binding affinity to OX1 receptor (unknown origin) assessed as association rate constant
T5 sequence (whole entry): T4 sequence (O43613 whole entry)

[35] = biological target: T5, Orexin/Hypocretin receptor type 1 (Homo sapiens); experiment: Binding affinity to OX1 receptor (unknown origin) assessed as dissociation rate constant
Rattus norvegicus [36] = experiment: Displacement of (2S)-N-(2-phenylphenyl)-1-[2-[1-(tritritiomethyl)benzimidazol-2-yl]sulfanylacetyl]pyrrolidine-2-carboxamide from human OX1R expressed in transgenic rat brain administered orally; assay type: functional
[37] = AUC in rat at 10 mg/kg, po; assay type: ADME, organism-based; conditions: in vivo
[38] = AUC in rat at 20 mg/kg, po; assay type: ADME, organism-based; conditions: in vivo
[39] = AUC in rat at 50 mg/kg, po; assay type: ADME, organism-based; conditions: in vivo
[40] = Cmax in rat at 10 mg/kg, po; assay type: ADME, organism-based; set-up: dose 10 mg/kg, route oral; conditions: in vivo
[41] = Cmax in rat at 20 mg/kg, po; assay type: ADME, organism-based; set-up: dose 20 mg/kg, route oral; conditions: in vivo
[42] = Cmax in rat at 50 mg/kg, po; assay type: ADME, organism-based; set-up: dose 50 mg/kg, route oral; conditions: in vivo

SMILES: O=C(c1cccc2[nH]ncc12)N1CCC(F)(F)[C@@H](Oc2ccc3ccccc3n2)C1
CLint scaled [1]: 761 mL/min/kg
clearance [3]: 87.5 mL/min/kg
Ki [4]: 2.6 nM
Ki (Orexin receptor type 2 [5]): > 1930 nM
Ratio Ki (CHO): > 744

SMILES: O=C(c1ccccc1-n1nccn1)N1CCC(F)(F)[C@@H](Oc2ccc3ccccc3n2)C1
IC50 (Orexin receptor type 2 [8]): 1310 to 4180 nM
INH [9]: 6.7 µM
INH [10]: 3.8 µM
fraction unbound [11]: < 0.01
IC50 [12]: 11 nM
Ki [4]: 1.3 nM
Ratio Ki (CHO): 400 to 401
IC50 [13]: 89 nM
IC50 (Orexin receptor type 2 [14]): 4180 nM
Ratio IC50 (Rattus norvegicus [15]): 119
solubility [16]: < 26 µM
solubility [17]: < 26 µM
fraction unbound [18]: < 0.01

The next lines start with results.

CLint scaled [1]: 1200 mL/min/kg
bioavailability [2]: < 1%
clearance [3]: 81 mL/min/kg
Ki (Orexin receptor type 2 [5]): 4310 nM
solubility [6]: Soluble
Drug metabolism [7]: Metabolite_Detected
SMILES: O=C(c1cccc(-n2ccnn2)c1)N1CCC(F)(F)[C@@H](Oc2ccc3ccccc3n2)C1
Ki [4]: 3.5 nM
Ratio Ki (CHO): 1230

CLint scaled [19]: 485 mL/min/kg
Ki (Orexin receptor type 2 [8]): > 10000 nM
CLint scaled [1]: 320 mL/min/kg
CLint scaled [20]: 62 mL/min/kg
Ratio IC50 [21]: 3 to 4
bioavailability [2]: 13%
clearance [3]: 75 mL/min/kg
fraction unbound [11]: 0.08
Ki [12]: 6800 to 10000 nM
Ki (Orexin receptor type 2 [5]): 1010 nM
IC50 [13]: 30 nM
IC50 (Orexin receptor type 2 [14]): > 10000 nM
Ratio IC50 (Rattus norvegicus [15]): > 625
solubility [16]: 194 µM (≈ 79.2 µg/mL)
solubility [17]: 171 µM (≈ 69.8 µg/mL)
fraction unbound [18]: 0.11
CLint scaled [22]: 775 mL/min/kg
half-life [23]: 168 min
clearance [24]: 38 mL/min/kg
half-life [25]: 30 min
bioavailability [26]: 37%
clearance [27]: 33 mL/min/kg
half-life [28]: 48 min
bioavailability [29]: 1%
Papp [30]: 35 ×10⁻⁶ cm/s
fraction unbound [31]: 0.08
fraction unbound [32]: 0.06
Kd [33]: 0.94 nM
K [34]: 1.08 ×10⁸ /M/s
K [35]: 0.102 s⁻¹
AUC [37]: 0.77 µM·h
AUC [38]: 8.3 µM·h
AUC [39]: 153 µM·h
Cmax [40]: 0.73 µM
Cmax [41]: 5 µM
Cmax [42]: 24 µM
SMILES: O=C(c1cccn2cncc12)N1CCC(F)(F)[C@@H](Oc2ccc3ccccc3n2)C1
Ki [4]: 1.8 nM
Ratio Ki (CHO): 561
Occ50 (Rattus norvegicus [36]): 0.032 µM

Ki (Orexin receptor type 2 [5]): 521 nM
solubility [16]: > 150 µM
solubility [17]: > 150 µM
SMILES: O=C(c1nccc2[nH]ccc12)N1CCC(F)(F)[C@@H](Oc2ccc3ccccc3n2)C1
inhibition (INH) [9]: Active
inhibition (INH) [10]: Active
Ki [4]: 1.6 nM
Ratio Ki (CHO): 325
